{"source": "patent US4323517A", "about": "“Methoxy and methylsulfinylthiolesters” (Troponwerke GmbH & Co. KG, priority 1977, dated 1982)", "key": {"[1]": {"system": "paw oedemas, caused by the administration of kaolin", "assay": "kaolin paw oedema, antiphlogistic action in rats", "assay_type": "in vivo", "settings": "Rattus norvegicus, read-out: Kaolin oedema ED50"}, "[2]": {"assay": "stomach ulcer (ulcerogenic action) in rats", "settings": "rat, in vivo"}, "[3]": {"assay": "comparison of the therapeutic range", "settings": "rat, in vivo"}, "[4]": {"assay": "in vivo", "settings": "rat"}, "[5]": {"system": "paw oedemas, caused by the administration of kaolin", "assay": "kaolin paw oedema, antiphlogistic action in rats", "assay_type": "in vivo", "excerpt": "The anti-inflammatory action was detected in paw oedemas, caused by the administration of kaolin, in rats.\nIn addition to the effects described for compound A, it could also be shown that the other derivatives (see Table 2) likewise have a powerful anti-inflammatory action. The minimum doses which still cause a clearly detectable effect on the paw oedema after the administration of kaolin are listed in Table 2.\nRats, kaolin oedema, intramuscularly, n = 10/dose group"}, "[6]": {"system": "concanavalin oedema", "assay": "concanavalin oedema", "assay_type": "in vivo", "settings": "im; intramuscularly", "excerpt": "(§1) Furthermore, A also has an action on other inflammation models. The ED50 values which follow are found (mg/kg; intramuscularly): formalin oedema 5.4, albumin oedema 6.3, yeast oedema 27.4, concanavalin oedema 3.4 and trypsin oedema 2.0."}, "[7]": {"system": "albumin oedema", "assay": "albumin oedema", "assay_type": "in vivo", "settings": "im; intramuscularly", "excerpt": "as §1"}, "[8]": {"system": "yeast oedema", "assay": "yeast oedema", "assay_type": "in vivo", "settings": "im; intramuscularly", "excerpt": "as §1"}, "[9]": {"system": "trypsin oedema", "assay": "trypsin oedema", "assay_type": "in vivo", "settings": "im; intramuscularly", "excerpt": "as §1"}, "[10]": {"system": "rats", "settings": "intramuscular"}, "[11]": {"system": "kaolin oedema", "assay": "comparison of the therapeutic range"}, "[12]": {"system": "formalin oedema", "assay": "formalin oedema", "assay_type": "in vivo", "settings": "im; intramuscularly", "excerpt": "as §1"}, "[13]": {"settings": "po, Therapeutic range LD50 / ED50 kaolin oedema, rats"}, "[14]": {"settings": "Rattus norvegicus, im, rats, kaolin oedema, intramuscularly, n = 10/dose group, read-out: Inhibition in % of the controls"}, "[15]": {"settings": "Rattus norvegicus, im, rats, intramuscularly, n = 10/dose group, read-out: ED50 (kaolin oedema)"}}, "note": "“Also recorded” adds a separate entry of the source. Like-named read-outs stand apart in the source and are kept apart here.", "data": [{"compound": "COc1ccc2c(c1)c(CC(=O)O)c(C)n2C(=O)c1ccc(Cl)cc1", "note": "[Indometacin]", "values": [{"measurement": "ED50", "setting": "[1]; po", "result": 2.9, "unit": "µmol/kg"}, {"measurement": "TD50", "setting": "[2]; rats, oral, read-out: Stomach ulcer ED50", "result": 11.1, "unit": "µmol/kg"}, {"measurement": "selectivity ratio", "setting": "[3]; po, Therapeutic range ED50 ulcer / ED50 kaolin oedema, rats", "result": 3.81}, {"measurement": "selectivity ratio", "setting": "[3]; [13]", "result": 23.4}, {"measurement": "LD50", "setting": "[4]; po", "result": 68, "unit": "µmol/kg"}]}, {"compound": "CC(C)(C)SCCC(=O)SC(C)(C)C", "note": "[(CH3)3 CSCH2 CH2 COSC(CH3)3, S-tert.-butyl 3-tert.-butylthiopropionothioate]", "values": [{"measurement": "inhibition in vivo at 12.5 mg/kg", "setting": "[5]; [14]", "result": 23.3, "unit": "%"}]}, {"compound": "CC(C)SCCC(=O)SC(C)C", "note": "[(CH3)2 CHSCH2 CH2 COSCH(CH3)2, S-Isopropyl 3-isopropylthiopropionothioate]", "values": [{"measurement": "inhibition in vivo at 25 mg/kg", "setting": "[5]; [14]", "result": 63.2, "unit": "%"}]}, {"compound": "CCC(C)SC(=O)CCS(=O)(=O)C(C)CC", "note": "(centres unmarked) [S-sec.-Butyl 3-sec.-butylsulphonylpropionothioate]", "values": [{"measurement": "inhibition in vivo at 12.5 mg/kg", "setting": "[5]; [14]", "result": 33, "unit": "%"}]}, {"compound": "CCCSC(=O)CC[S+]([O-])CCC", "note": "(centres unmarked) [C3 H7 SOCH2 CH2 COSC3 H7, S-Propyl 3-propylsulphinylpropionothioate]", "values": [{"measurement": "inhibition in vivo at 100 mg/kg", "setting": "[5]; [14]", "result": 73, "unit": "%"}]}, {"compound": "CC(C)CSC(=O)CC[S+]([O-])CC(C)C", "note": "(centres unmarked) [S-isobutyl 3-isobutylsulphinylpropionothioate]", "values": [{"measurement": "inhibition in vivo at 12.5 mg/kg", "setting": "[5]; [14]", "result": 17.9, "unit": "%"}]}, {"compound": "CCC(C)SCCC(=O)SC(C)CC", "note": "(centres unmarked) [S-sec.-Butyl 3-sec.-butylthiopropionothioate]", "values": [{"measurement": "inhibition in vivo at 50 mg/kg", "setting": "[5]; [14]", "result": 72, "unit": "%"}]}, {"compound": "CCCCSCCC(=O)SCCCC", "note": "[C4 H9 SCH2 CH2 COSC4 H9, S-Butyl 3-butylthiopropionothioate]", "values": [{"measurement": "inhibition in vivo at 50 mg/kg", "setting": "[5]; [14]", "result": 77.2, "unit": "%"}]}, {"compound": "C=CC(=O)SCC", "note": "[CH2 =CHCOSC2 H5, S-ethyl acrylthioate]", "values": [{"measurement": "ED50", "setting": "[5]; [15]", "result": 1.5, "unit": "mg/kg"}, {"measurement": "inhibition in vivo at 0.32 mg/kg", "setting": "[5]; Rattus norvegicus, im, rats, kaolin oedema, intramuscularly, dose 0.32 mg/kg, n = 10/dose group, read-out: Inhibition in % of the controls", "result": 18.5, "unit": "%"}]}, {"compound": "CCC(C)SC(=O)CC[S+]([O-])C(C)CC", "note": "(centres unmarked) [S-sec.-Butyl 3-sec.-butylsulphinylpropionothioate]", "values": [{"measurement": "inhibition in vivo at 100 mg/kg", "setting": "[5]; [14]", "result": 90.5, "unit": "%"}]}, {"compound": "CCCCC1C(=O)N(c2ccccc2)N(c2ccccc2)C1=O", "note": "[Phenylbutazone]", "values": [{"measurement": "ED50", "setting": "[1]; rats, oral", "result": 122, "unit": "µmol/kg"}, {"measurement": "TD50", "setting": "[2]; po", "result": 182, "unit": "µmol/kg"}]}, {"compound": "CC(C)CSC(=O)CCS(=O)(=O)CC(C)C", "note": "[(CH3)2 CHCH2 SO2 CH2 CH2 COSCH2 CH(CH3)2, S-Isobutyl 3-isobutylsulphonylpropionothioate]", "values": [{"measurement": "inhibition in vivo at 12.5 mg/kg", "setting": "[5]; [14]", "result": 42, "unit": "%"}]}, {"compound": "C=C(C)C(=O)SC", "note": "[CH2 =C(CH3)COSCH3, S-methyl methacrylthioate]", "values": [{"measurement": "inhibition in vivo at 5 mg/kg", "setting": "[5]; Rattus norvegicus, im, rats, kaolin oedema, intramuscularly, dose 5.00 mg/kg, n = 10/dose group, read-out: Inhibition in % of the controls", "result": 21.8, "unit": "%"}]}, {"compound": "CCOC(=O)CCSC", "note": "[CH3 SCH2 CH2 COOC2 H5, Ethyl 3-methylthiopropionate]", "values": [{"measurement": "inhibition in vivo at 25 mg/kg", "setting": "[5]; [14]", "result": 16, "unit": "%"}]}, {"compound": "CC(C)CSCCC(=O)SCC(C)C", "note": "[S-Isobutyl 3-isobutylthiopropionothioate]", "values": [{"measurement": "inhibition in vivo at 50 mg/kg", "setting": "[5]; [14]", "result": 77.2, "unit": "%"}]}, {"compound": "CC(C)SC(=O)CC[S+]([O-])C(C)C", "note": "(centres unmarked) [(CH3)2 CHSOCH2 CH2 COSCH(CH3)2, S-Isopropyl 3-isopropylsulphinylpropionothioate]", "values": [{"measurement": "inhibition in vivo at 12.5 mg/kg", "setting": "[5]; [14]", "result": 22.7, "unit": "%"}]}, {"compound": "CSCCC(=O)SC", "note": "[A, S-methyl 3-methylthiopropionothioate]", "values": [{"measurement": "ED50", "setting": "[5]; Rattus norvegicus, im, rats, intramuscular, read-out: Kaolin oedema ED50", "result": 4.85, "unit": "µmol/kg"}, {"measurement": "antiphlogistic (anti-inflammatory) action, in words", "setting": "[5]; rat, in vivo", "result": "very pronounced antiphlogistic action"}, {"measurement": "ED50", "setting": "[6]", "result": 3.4, "unit": "mg/kg"}, {"measurement": "ED50", "setting": "[7]", "result": 6.3, "unit": "mg/kg"}, {"measurement": "ED50", "setting": "[8]", "result": 27.4, "unit": "mg/kg"}, {"measurement": "ED50", "setting": "[9]", "result": 2, "unit": "mg/kg"}, {"measurement": "LD50", "setting": "[10]", "result": "4,587 μmols/kg"}, {"measurement": "TD50", "setting": "[2]; im", "result": 256, "unit": "µmol/kg"}, {"measurement": "therapeutic range, in words", "setting": "[11]; rat, in vivo", "result": "wide therapeutic range; also recorded: unexpected favourable therapeutic range"}, {"measurement": "selectivity ratio", "setting": "[3]", "result": 52.9}, {"measurement": "selectivity ratio", "setting": "[3]; Therapeutic range LD50 / ED50 kaolin oedema, rats, intramuscular", "result": 946}, {"measurement": "ED50", "setting": "[12]", "result": 5.4, "unit": "mg/kg"}, {"measurement": "LD50", "setting": "[4]; im", "result": 4590, "unit": "µmol/kg"}]}, {"compound": "CSCC(C)C(=O)SC", "note": "(centres unmarked) [CH3 SCH2 CH(CH3)COSCH3, S-methyl 3-methylthio-2-propylcarbonylthioate]", "values": [{"measurement": "ED50", "setting": "[5]; [15]", "result": 4.5, "unit": "mg/kg"}, {"measurement": "inhibition in vivo at 0.65 mg/kg", "setting": "[5]; Rattus norvegicus, im, rats, kaolin oedema, intramuscularly, dose 0.65 mg/kg, n = 10/dose group, read-out: Inhibition in % of the controls", "result": 16.6, "unit": "%"}]}, {"compound": "CCSCCC(=O)SCC", "note": "[C2 H5 SCH2 CH2 COSC2 H5, S-Ethyl 3-ethylthiopropionothioate]", "values": [{"measurement": "ED50", "setting": "[5]; [15]", "result": 3.75, "unit": "mg/kg"}, {"measurement": "inhibition in vivo at 2.5 mg/kg", "setting": "[5]; Rattus norvegicus, im, rats, kaolin oedema, intramuscularly, dose 2.50 mg/kg, n = 10/dose group, read-out: Inhibition in % of the controls", "result": 58.2, "unit": "%"}]}, {"compound": "O=C(O)CCS", "note": "[HSCH2 CH2 COOH, 3-mercaptopropionic acid]", "values": [{"measurement": "inhibition in vivo at 20 mg/kg", "setting": "[5]; Rattus norvegicus, im, rats, kaolin oedema, intramuscularly, dose 20.00 mg/kg, n = 10/dose group, read-out: Inhibition in % of the controls", "result": 8.5, "unit": "%"}]}, {"compound": "CSC(=O)CC[S+](C)[O-]", "note": "(centres unmarked) [CH3 SOCH2 CH2 COSCH3, S-Methyl 3-methylsulphinylpropionothioate]", "values": [{"measurement": "ED50", "setting": "[5]; [15]", "result": 1.8, "unit": "mg/kg"}, {"measurement": "inhibition in vivo at 3.12 mg/kg", "setting": "[5]; Rattus norvegicus, im, rats, kaolin oedema, intramuscularly, dose 3.12 mg/kg, n = 10/dose group, read-out: Inhibition in % of the controls", "result": 10.2, "unit": "%"}]}, {"compound": "CC=CC(=O)SC", "note": "[CH3 CH=CHCOSCH3, S-methyl crotonylthioate]", "values": [{"measurement": "inhibition in vivo at 12.5 mg/kg", "setting": "[5]; [14]", "result": 16, "unit": "%"}]}, {"compound": "O=C(O)c1ccccc1Nc1cccc(C(F)(F)F)c1", "note": "[Flufenamic acid]", "values": [{"measurement": "ED50", "setting": "[1]; rats, oral", "result": 36.2, "unit": "µmol/kg"}, {"measurement": "TD50", "setting": "[2]; po", "result": 55.1, "unit": "µmol/kg"}, {"measurement": "Therapeutic range ED50 ulcer / ED50 kaolin oedema", "setting": "[11]; rats, oral", "result": 1.52}, {"measurement": "selectivity ratio", "setting": "[3]; [13]", "result": 56.3}, {"measurement": "LD50", "setting": "[4]; po", "result": 2040, "unit": "µmol/kg"}]}, {"compound": "CCCSCCC(=O)SCCC", "note": "[C3 H7 SCH2 CH2 COSC3 H7, S-Propyl 3-propylthiopropionothioate]", "values": [{"measurement": "inhibition in vivo at 25 mg/kg", "setting": "[5]; [14]", "result": 68.5, "unit": "%"}]}, {"compound": "CCCCSC(=O)CC[S+]([O-])CCCC", "note": "(centres unmarked) [C4 H9 SOCH2 CH2 COSC4 H9, S-Butyl 3-butylsulphinylpropionothioate]", "values": [{"measurement": "inhibition in vivo at 100 mg/kg", "setting": "[5]; [14]", "result": 73, "unit": "%"}]}]}
